Test results: the supplement of paper PMC11061612

Assays:
Assay in all cases: combination Emax (second highest fraction inhibited in the dose matrix, 72 h); higher = more inhibition; extreme values may be limits of the assay
[1] = tested on: HT-1376 (Bladder Carcinoma)
Outline: (§1)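 After 24 hours at 37°C and 5% CO2 in 1536-well plates, cells in DMEM/F12 or RPMI plus 10% FBS received two-drug dose matrices for 72 hours. Viability came from CellTiter-Glo 2.0 luminescence and was scaled as inhibition, anchored at 0 by vehicle wells and at 1 by blank wells. Combination Emax is taken as the second-highest inhibition in the matrix, and Bliss excess as the observed combination effect less EA + EB − EA·EB, with EA and EB the single-agent effects.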

[2] = tested on: CCRF-CEM (T-Lymphoblastic Leukemia)
Outline: as §1

[3] = tested on: T98G (Glioblastoma)
Outline: as §1

[4] = tested on: Calu-3 (Lung Adenocarcinoma)
Outline: as §1

[5] = tested on: HO-1-N-1 (Oral Cavity Carcinoma)
Outline: as §1

[6] = tested on: NCI-H82 (Small Cell Lung Carcinoma)
Outline: as §1

[7] = tested on: LS-180 (Colorectal Carcinoma)
Outline: as §1

[8] = tested on: CaR-1 (Colorectal Carcinoma)
Outline: as §1

[9] = tested on: NB10 (Neuroblastoma)
Outline: as §1

[10] = tested on: TE-9 (Esophageal Squamous Cell Carcinoma)
Outline: as §1

[11] = tested on: Ramos-2G6-4C10 (Burkitt's Lymphoma)
Outline: as §1

[12] = tested on: RO82-W-1 (Thyroid Gland Carcinoma)
Outline: as §1

[13] = tested on: NCI-H2085 (Non-Small Cell Lung Carcinoma)
Outline: as §1

[14] = tested on: TE-15 (Esophageal Squamous Cell Carcinoma)
Outline: as §1

[15] = tested on: LB831-BLC (Bladder Carcinoma)
Outline: as §1

[16] = tested on: HOS (Osteosarcoma)
Outline: as §1

[17] = tested on: UM-UC-3 (Bladder Carcinoma)
Outline: as §1

[18] = tested on: KELLY (Neuroblastoma)
Outline: as §1

[19] = tested on: HCC-78 (Lung Adenocarcinoma)
Outline: as §1

[20] = tested on: KURAMOCHI (Ovarian Carcinoma)
Outline: as §1

Structure (SMILES)	combination Emax [1]	combination Emax [2]	combination Emax [3]	combination Emax [4]	combination Emax [5]	combination Emax [6]	combination Emax [7]	combination Emax [8]	combination Emax [9]	combination Emax [10]	combination Emax [11]	combination Emax [12]	combination Emax [13]	combination Emax [14]	combination Emax [15]	combination Emax [16]	combination Emax [17]	combination Emax [18]	combination Emax [19]	combination Emax [20]
O=C(c1cc(Cc2n[nH]c(=O)c3ccccc23)ccc1F)N1CCN(C(=O)C2CC2)CC1 [Olaparib] + Cc1c2c(nn1C)CSCc1cc(n(C)n1)CSc1cc(c3ccccc3c1)OCCCc1c(C(=O)O)n(C)c3c-2c(Cl)ccc13 [AZD5991] (first compound max 10 µM, 7x7, partner max 1 µM)	0.0928	0.271	0.223	0.0927	0.78	0.899	0.221	0.13	0.437	0.202	0.978	0.147	0.0831	0.29	0.136	0.254	0.0695	0.934	0.13	0.28
N#Cc1cnc(Nc2cc(NC[C@H]3CNCCO3)c(C(F)(F)F)cn2)cn1 [SRA737] + C=CCn1c(=O)c2cnc(Nc3ccc(N4CCN(C)CC4)cc3)nc2n1-c1cccc(C(C)(C)O)n1 [AZD1775] (first compound max 10 µM, partner max 1 µM)	0.387	0.995	0.9	0.495	0.666	0.985	0.758	0.408	0.84	0.7	1	0.116	0.882	0.821	0.721	0.811	0.471	1	0.714	0.717
N#Cc1cnc(Nc2cc(NC[C@H]3CNCCO3)c(C(F)(F)F)cn2)cn1 [SRA737] + CCc1c2c(nc3ccc(O)cc13)-c1cc3c(c(=O)n1C2)COC(=O)[C@]3(O)CC [SN-38] (first compound max 10 µM, 7x7, partner max 0.3 µM)	0.566	1	0.921	0.674	0.975	0.967	0.74	0.791	0.769	0.589	1	0.214	0.665	0.931	0.904	0.849	0.967	1	0.959	0.9
N#Cc1cnc(Nc2cc(NC[C@H]3CNCCO3)c(C(F)(F)F)cn2)cn1 [SRA737] + Nc1ccn([C@@H]2O[C@H](CO)[C@@H](O)C2(F)F)c(=O)n1 [Gemcitabine] (first compound max 10 µM, 7x7, partner max 0.3 µM)	0.442	1	0.825	0.67	1	0.978	0.804	0.67	0.946	0.52	0.976	0.212	0.595	0.923	0.911	0.752	0.966	1	0.906	0.673
N#Cc1cnc(Nc2cc(NC[C@H]3CNCCO3)c(C(F)(F)F)cn2)cn1 [SRA737] + O=c1[nH]cc(F)c(=O)[nH]1 [5-Fluorouracil] (first compound max 10 µM, 7x7, partner max 20 µM)	0.175	0.99	0.837	0.213	0.473	0.816	0.568	0.229	0.53	0.469	0.84	0.144	0.501	0.705	0.34	0.435	0.208	1	0.819	0.606
Cc1nc(-c2cn3c(n2)-c2ccc(-c4cnn(C(C)(C)C(N)=O)c4)cc2OCC3)n(C(C)C)n1 [Taselisib] + O=C(Nc1ccc2[nH]nc(-c3ccncc3)c2c1)[C@@H]1CCN(CC(=O)N2CCN(c3ccc(-c4ncccn4)cc3)CC2)C1 [SCH772984] (first compound max 10 µM, 7x7, partner max 5 µM)	0.227	0.611	0.851	0.855	0.999	0.429	0.867	0.872	0.791	0.691	0.163	0.193	0.603	0.832	0.641	0.564	0.716	0.635	0.664	0.683
CC1(C)CCC(CN2CCN(c3ccc(C(=O)NS(=O)(=O)c4ccc(NCC5CCOCC5)c([N+](=O)[O-])c4)c(Oc4cnc5[nH]ccc5c4)c3)CC2)=C(c2ccc(Cl)cc2)C1 [Venetoclax] + CS(=O)(=O)CCNCc1ccc(-c2ccc3ncnc(Nc4ccc(OCc5cccc(F)c5)c(Cl)c4)c3c2)o1 [Lapatinib] (first compound max 1 µM, 7x7, partner max 10 µM)	0.194	0.501	0.179	0.74	0.668	0.279	0.298	0.308	0.0761	0.189	0.241	0.144	0.244	0.742	0.202	0.13	0.104	0.947	0.143	0.341
